Where no end group is shown, it is not given here. [ ]: non-standard residue; d: D form. Aib = CC(C)(N)C(=O)O
Tests used:
[1] = test system: PI3K/AKT/GSK3β signalling pathway; test: Western blotting for hippocampal levels of PI3K/AKT/GSK3β; format: in vivo; settings: APP/PS1 mice; FIG. 11; N=6 per group
Description: Materials and methods in Example 2 are the same as Example 1 except when stated. Reagents used in Example 2 only include antibodies to p-PI3Kp85, PI3Kp85, p-Akt (ser473), Akt, p-GSK3β ([…]), and GSK3β from Abcam, Inc. Cambridge, UK. The antibody to p-tau (AT8) from Thermo Scientific USA. Mouse Anti-β-actin, Anti-Rabbit IgG, Anti-mouse IgG, CY3-Anti-mouse IgG, RIPA Lysate, BCA Protein Assay Kit, DAPI staining solution and Anti-fluorescence decay agent from Boster (Wuhan, China). The hippocampi of mouse were dissected and homogenized in tissue protein extraction reagent, and protein concentration was measured using BCA Protein Assay Kit. A total of 50 μg of protein was used from each sample. Sample proteins were separated on 12% SDS-polyacrylamide gels. After that, the proteins were transferred onto PVDF membranes and nonspecific binding was blocked with 5% BSA. A primary antibody was used to incubate the membranes overnight at 4° C., followed by a secondary antibody for 2 h. The optical density of the target strip (p-PI3K, t-PI3K, p-AKT, t-AKT, p-GSK3β and t-GSK3β) was analyzed by using a gel image processing system. Data were analysed using a one-way ANOVA with post-hoc Bonferroni tests. The results are illustrated in FIGS. 5 to 11.

APP/PS1 mice = test: Classical Morris water maze test; format: in vivo
Description: Materials and methods in Example 2 are the same as Example 1 except when stated. Reagents used in Example 2 only include antibodies to p-PI3Kp85, PI3Kp85, p-Akt (ser473), Akt, p-GSK3β (Y216), and GSK3β from Abcam, Inc. Cambridge, UK. The antibody to p-tau (AT8) from Thermo Scientific USA. Mouse Anti-β-actin, Anti-Rabbit IgG, Anti-mouse IgG, CY3-Anti-mouse IgG, RIPA Lysate, BCA Protein Assay Kit, DAPI staining solution and Anti-fluorescence decay agent from Boster (Wuhan, China).
Classical Morris water maze (MWM) test was used to investigate spatial reference memory of mouse. The water maze mainly included a stainless steel pool and a platform in the pool for escape. There were several landmarks fixed to the walls of the water maze. The pool was filled with tap water at 22±2° C. The first phase was acquisition trial phase which was consisted of five training days (days 1-5) and four trials each day. The pool (diameter, 120 cm; high, 50 cm) was divided into four quadrants and the escape platform (diameter, 12 cm) hidden 1 cm beneath the water surface was placed in the center of the first quadrant. […] The escape latencies were recorded by Ethovision 3.0 software system (Noldus Information Technology, the Netherlands). […] The percentage of swimming time in target quadrant (the first quadrant) and frequency of platform crossing were recorded. […] Swimming time to target was recorded.

## YXEGTFTSDYSIYLDKQAAXEFVNWLLAGGPSSGAPPPSKRRQRRKKRGY-NH2 (Y[Aib]EGTFTSDYSIYLDKQAA[Aib]EFVNWLLAGGPSSGAPPPSKRRQRRKKRGY-NH2) [DA5, No. 12; X=aminoisobutyric acid]
[1]
  activation of GSK3β / PI3K/AKT signalling (western blot, hippocampus): prevents excessive activation of GSKβ by upregulating P13/AKT signalling
APP/PS1 mice; APP/PS1 mice vs APP/PS1-saline, FIG. 7c, 7d
  probe test, recall of the escape route (classical Morris water maze): recalled the escape route to a greater extent than APP/PS1-saline mice
APP/PS1 mice; APP/PS1 mice, FIG. 7, N=8-14 per group
  disorder in spatial memory (classical Morris water maze): ameliorated
